In patent US12318373B2, “Methods of treating gastrointestinal stromal tumors” (Deciphera Pharmaceuticals, LLC, priority 2019, dated 2025):

What was measured:
[1] = system: GIST with KIT exon 11 primary mutations; conditions: cited from earlier work
[2] = Example 7: coadministration with strong CYP3A inhibitor (itraconazole), exposure; type: in vivo; conditions: coadministration of ripretinib with itraconazole
[3] = Example 8: coadministration with proton-pump inhibitor (pantoprazole), exposure; type: in vivo; conditions: ripretinib coadministered with pantoprazole
Procedure: The effect of a proton-pump inhibitor on the exposure of ripretinib was evaluated.

[4] = Example 9: food effect (high-fat meal) on exposure; type: in vivo; conditions: 150 mg dose with a high-fat meal
Procedure: The effect of a high-fat breakfast on ripretinib and Compound A exposure was evaluated. A high fat meal consisted of approximately 150, 250, and 500-600 calories from protein, carbohydrate, and fat, respectively. […] Therefore, ripretinib may be taken with or without food at approximately same time each day.

Increase in AUC0-inf [2] [%] | Increase in Cmax [2] | Difference in plasma exposure [3] | AUC0-24h higher by [4] [%] | Cmax higher by [4] [%] | Compound | 2-year relapse-free survival ([1]; adjuvant setting) [%] | Median event-free survival ([1]; metastatic setting)
– | – | – | – | – | Cc1ccc(NC(=O)c2ccc(CN3CCN(C)CC3)cc2)cc1Nc1nccc(-c2cccnc2)n1 [imatinib] | ~90 | under 2 years
99 | no change | No clinically significant differences | 47 | 66 | CCn1c(=O)c(-c2cc(NC(=O)Nc3ccccc3)c(F)cc2Br)cc2cnc(N)cc21 [Compound A] | – | –
